Reference: the supplement of paper PMC10307832

Experiments:
Experiment in all cases: relative viability (nuclei count vs DMSO), 5 days (fraction); higher = more cells survive
A-427 = test system: A-427
Method in brief: (§1)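 For relative viability, nuclei counts in treated wells were divided by those in vehicle wells. Lung cancer cell lines had been pin-tool dosed in 1536-well plates the day after seeding and cultured for 5 days, then fixed and stained in one step (final 0.05% Triton X-100, 1% formaldehyde, 1 ug/ml Hoechst) and imaged at 4×. Doses were one drug alone or a fixed anchor-drug dose plus five library-drug doses (not always all listed) in √10 steps, and values are duplicate-plate medians.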

COR-L 105 = test system: COR-L 105
Method in brief: as §1

ChaGo-K-1 = test system: ChaGo-K-1
Method in brief: as §1

EKVX = test system: EKVX
Method in brief: as §1

EMC-BAC-2 = test system: EMC-BAC-2
Method in brief: as §1

H3255 = test system: H3255
Method in brief: as §1

HCC-366 = test system: HCC-366
Method in brief: as §1

LK-2 = test system: LK-2
Method in brief: as §1

LOU-NH91 = test system: LOU-NH91
Method in brief: as §1

NCI-H1666 = test system: NCI-H1666
Method in brief: as §1

NCI-H1734 = test system: NCI-H1734
Method in brief: as §1

NCI-H1755 = test system: NCI-H1755
Method in brief: as §1

NCI-H1975 = test system: NCI-H1975
Method in brief: as §1

NCI-H2170 = test system: NCI-H2170
Method in brief: as §1

NCI-H23 = test system: NCI-H23
Method in brief: as §1

NCI-H441 = test system: NCI-H441
Method in brief: as §1

NCI-H520 = test system: NCI-H520
Method in brief: as §1

PC-3 [JPC-3] = test system: PC-3 [JPC-3]
Method in brief: as §1

SK-MES-1 = test system: SK-MES-1
Method in brief: as §1

SW 900 = test system: SW 900
Method in brief: as §1

## CCN(CC)CCCCNc1ncc2cc(-c3cc(OC)cc(OC)c3)c(NC(=O)NC(C)(C)C)nc2n1 + CC(=O)c1c(C)c2cnc(Nc3ccc(N4CCNCC4)cn3)nc2n(C2CCCC2)c1=O [Palbociclib] (partner 0.5 µM)
A-427; first compound 0.01 µM
  relative viability: 0.58
A-427; first compound 0.03162 µM
  relative viability: 0.475
A-427; first compound 0.1 µM
  relative viability: 0.59
A-427; first compound 0.3162 µM
  relative viability: 0.501
A-427; first compound 1 µM
  relative viability: 0.398
COR-L 105; first compound 0.01 µM
  relative viability: 0.398
COR-L 105; first compound 0.03162 µM
  relative viability: 0.393
COR-L 105; first compound 0.1 µM
  relative viability: 0.427
COR-L 105; first compound 0.3162 µM
  relative viability: 0.423
COR-L 105; first compound 1 µM
  relative viability: 0.405
ChaGo-K-1; first compound 0.01 µM
  relative viability: 0.98
ChaGo-K-1; first compound 0.03162 µM
  relative viability: 0.915
ChaGo-K-1; first compound 0.1 µM
  relative viability: 1.08
ChaGo-K-1; first compound 0.3162 µM
  relative viability: 0.997
ChaGo-K-1; first compound 1 µM
  relative viability: 0.823
EKVX; first compound 0.03162 µM
  relative viability: 0.406
EKVX; first compound 0.1 µM
  relative viability: 0.31
EKVX; first compound 0.3162 µM
  relative viability: 0.817
EKVX; first compound 1 µM
  relative viability: 0.413
EMC-BAC-2; first compound 0.03162 µM
  relative viability: 0.501
EMC-BAC-2; first compound 0.1 µM
  relative viability: 0.525
EMC-BAC-2; first compound 0.3162 µM
  relative viability: 0.536
EMC-BAC-2; first compound 1 µM
  relative viability: 0.527
H3255; first compound 0.01 µM
  relative viability: 0.317
H3255; first compound 0.03162 µM
  relative viability: 0.292
H3255; first compound 0.1 µM
  relative viability: 0.388
H3255; first compound 0.3162 µM
  relative viability: 0.315
H3255; first compound 1 µM
  relative viability: 0.317
HCC-366; first compound 0.01 µM
  relative viability: 0.364
HCC-366; first compound 0.03162 µM
  relative viability: 0.406
HCC-366; first compound 0.1 µM
  relative viability: 0.504
HCC-366; first compound 0.3162 µM
  relative viability: 0.438
HCC-366; first compound 1 µM
  relative viability: 0.441
LK-2; first compound 0.01 µM
  relative viability: 0.65
LK-2; first compound 0.03162 µM
  relative viability: 0.66
LK-2; first compound 0.1 µM
  relative viability: 0.637
LK-2; first compound 0.3162 µM
  relative viability: 0.502
LK-2; first compound 1 µM
  relative viability: 0.156
LOU-NH91; first compound 0.01 µM
  relative viability: 0.572
LOU-NH91; first compound 0.03162 µM
  relative viability: 0.546
LOU-NH91; first compound 0.1 µM
  relative viability: 0.557
LOU-NH91; first compound 0.3162 µM
  relative viability: 0.491
LOU-NH91; first compound 1 µM
  relative viability: 0.412
NCI-H1666; first compound 0.01 µM
  relative viability: 0.666
NCI-H1666; first compound 0.03162 µM
  relative viability: 0.626
NCI-H1666; first compound 0.1 µM
  relative viability: 0.613
NCI-H1666; first compound 0.3162 µM
  relative viability: 0.649
NCI-H1666; first compound 1 µM
  relative viability: 0.613
NCI-H1734; first compound 0.01 µM
  relative viability: 0.16
NCI-H1734; first compound 0.03162 µM
  relative viability: 0.281
NCI-H1734; first compound 0.1 µM
  relative viability: 0.334
NCI-H1734; first compound 0.3162 µM
  relative viability: 0.38
NCI-H1734; first compound 1 µM
  relative viability: 0.323
NCI-H1755; first compound 0.01 µM
  relative viability: 0.474
NCI-H1755; first compound 0.03162 µM
  relative viability: 0.448
NCI-H1755; first compound 0.1 µM
  relative viability: 0.462
NCI-H1755; first compound 0.3162 µM
  relative viability: 0.472
NCI-H1755; first compound 1 µM
  relative viability: 0.459
NCI-H1975; first compound 0.01 µM
  relative viability: 0.608
NCI-H1975; first compound 0.03162 µM
  relative viability: 0.498
NCI-H1975; first compound 0.1 µM
  relative viability: 0.589
NCI-H1975; first compound 0.3162 µM
  relative viability: 0.697
NCI-H1975; first compound 1 µM
  relative viability: 0.475
NCI-H2170; first compound 0.01 µM
  relative viability: 0.38
NCI-H2170; first compound 0.03162 µM
  relative viability: 0.37
NCI-H2170; first compound 0.1 µM
  relative viability: 0.429
NCI-H2170; first compound 0.3162 µM
  relative viability: 0.409
NCI-H2170; first compound 1 µM
  relative viability: 0.385
NCI-H23; first compound 0.01 µM
  relative viability: 0.534
NCI-H23; first compound 0.03162 µM
  relative viability: 0.451
NCI-H23; first compound 0.1 µM
  relative viability: 0.598
NCI-H23; first compound 0.3162 µM
  relative viability: 0.547
NCI-H23; first compound 1 µM
  relative viability: 0.466
NCI-H441; first compound 0.01 µM
  relative viability: 0.193
NCI-H441; first compound 0.03162 µM
  relative viability: 0.204
NCI-H441; first compound 0.1 µM
  relative viability: 0.198
NCI-H441; first compound 0.3162 µM
  relative viability: 0.261
NCI-H441; first compound 1 µM
  relative viability: 0.193
NCI-H520; first compound 0.01 µM
  relative viability: 0.22
NCI-H520; first compound 0.03162 µM
  relative viability: 0.22
NCI-H520; first compound 0.1 µM
  relative viability: 0.217
NCI-H520; first compound 0.3162 µM
  relative viability: 0.175
NCI-H520; first compound 1 µM
  relative viability: 0.15
PC-3 [JPC-3]; first compound 0.03162 µM
  relative viability: 0.607
PC-3 [JPC-3]; first compound 0.1 µM
  relative viability: 0.616
PC-3 [JPC-3]; first compound 0.3162 µM
  relative viability: 0.539
PC-3 [JPC-3]; first compound 1 µM
  relative viability: 0.58
SK-MES-1; first compound 0.01 µM
  relative viability: 0.394
SK-MES-1; first compound 0.03162 µM
  relative viability: 0.345
SK-MES-1; first compound 0.1 µM
  relative viability: 0.32
SK-MES-1; first compound 0.3162 µM
  relative viability: 0.268
SK-MES-1; first compound 1 µM
  relative viability: 0.297
SW 900; first compound 0.01 µM
  relative viability: 0.653
SW 900; first compound 0.03162 µM
  relative viability: 0.535
SW 900; first compound 0.1 µM
  relative viability: 0.602
SW 900; first compound 0.3162 µM
  relative viability: 0.517
SW 900; first compound 1 µM
  relative viability: 0.483
